Assay [1] addresses human recombinant 5-HT2A receptor (Homo sapiens (Human), UniProt P28223). The assay can be described thus: 5-HT2A receptor binding inhibition test ([3H]-Ketanserin). The note with it: Jump-In HEK cell membrane, 25° C. 1.5 hours. The protocol:
Test Example 1: 5-HT2A Receptor Binding Inhibition Test
(§1) (Each Experimental Condition)
Cell membrane: 15 μg of Jump-In HEK cell membrane (expressing human recombinant 5-HT2A receptor) per well
(§2) Assay buffer: Tris-HCl 50 mmol/L (pH 7.4) containing NaCl 120 mmol/L, MgCl2·6H2O 1 mmol/L, KCl 5 mmol/L, 0.1% BSA and CaCl2 2 mmol/L
Radioactive ligand: [^3H]-Ketanserin with a final concentration of around Kd value calculated by the following method
Non-specific ligand: Serotonin HCl with a final concentration of 500 μmol/L
(§3) The Kd value is calculated when the lot of cell membrane is changed. In advance, 0.5 μL of a 1 mmol/L compound for non-specific binding calculation dissolved in DMSO or DMSO is dispensed into a microplate, and the cell membrane is diluted with an Assay buffer. The radioactive ligand solution is serially diluted and the count is confirmed with a liquid scintillator. Assay buffer containing diluted cell membrane is dispensed into a microplate at 50 μL/well. Then, the radioactive ligand solution is dispensed into a microplate at 50 μL/well, and the plate is sealed. It is allowed to stand at room temperature (25° C.) for 1.5 hours. During this period, 50 mmol/L Tris-HCl (pH 7.4) is dispensed into a GF/B UniFilter plate at 50 μL/well and allowed to stand at 4° C. for 1 hour or longer. After that, filtration is performed with Cell harvester (PerkinElmer). The radioactive ligand solution is dispensed into an empty well of the GF/B UniFilter plate at 10 μL/well. After the GF/B UniFilter plate is dried at room temperature, MicroScinti 20 is dispensed into the GF/B UniFilter plate at 50 μL/well to seal the plate. The GF/B UniFilter plate is allowed to stand overnight at room temperature. The radioactivity of [^3H]-Ketanserin bound to the 5-HT2A receptor is measured using Microbeta2 (PerkinElmer) at a measurement time of 1 min/well. The Saturation curve is drawn from the measured value, and the Kd value is calculated from the slope of the Scatchard Plot.
(§4) (Binding Test of the Compound According to the Present Invention)
In advance, 0.5 μL of the compound solution dissolved in DMSO is dispensed into a microplate, and the cell membrane and the hot ligand are diluted with Assay buffer, respectively. Then, the Assay buffer containing the diluted cell membrane is dispensed into a microplate at 50 μL/well. Then, the radioactive ligand solution is dispensed into a microplate at 50 μL/well, and the plate is sealed. Then, it is allowed to stand at room temperature (25° C.) for 1.5 hours. During this period, 50 mmol/L Tris-HCl (pH 7.4) is dispensed into a GF/B UniFilter plate at 50 μL/well and allowed to stand at 4° C. for 1 hour or longer. After that, filtration is performed with Cell harvester (PerkinElmer). After the GF/B UniFilter plate is dried at room temperature, MicroScinti 20 is dispensed into the GF/B UniFilter plate at 50 μL/well to seal the plate. The GF/B UniFilter plate is allowed to stand overnight at room temperature. The radioactivity of [^3H]-Ketanserin bound to the 5-HT2A receptor is measured using Microbeta2 (PerkinElmer) at a measurement time of 1 min/well. The non-specific binding is calculated from the radioactivity of [^3H]-Ketanserin in the presence of 500 μmol/L Serotonin HCl which is the unlabeled ligand, and the total binding is calculated from the radioactivity of [^3H]-Ketanserin in the absence of the compound according to the present invention (Vehicle). Finally, the Ki value is calculated from the dose-response curve.
(§5) (The binding activity of the compound according to the present invention is calculated from the following binding inhibition rate (%).)
(§6) [formula] • a; mean cpm of non-specific binding • b; average cpm of total binding • c; cpm in the presence of the test compound

The target in assay [2] is human recombinant 5-HT2C receptor (Homo sapiens (Human), UniProt P28335). The assay can be described thus: 5-HT2C receptor binding inhibition test ([3H]-Mesulergine). To be noted: Jump-In HEK cell membrane, 37° C. 2 hours. The protocol: Test Example 2: 5-HT2C Receptor Binding Inhibition Test
as §1
Cell membrane: 0.5 μg of Jump-In HEK cell membrane (expressing human recombinant 5-HT2C receptor) per well
as §2
Radioactive ligand: [^3H]-Mesulergine with a final concentration of around Kd value calculated by the following method
Non-specific ligand: Serotonin HCl with a final concentration of […]
as §3, with “37° C.” for “room temperature (25° C.)”, “2” for “1.5”, “[^3H]-Mesulergine” for “[^3H]-Ketanserin”, “5-HT2C” for “5-HT2A”
as §4
In advance, 0.5 μL of the compound solution dissolved in DMSO is dispensed into a microplate, and the cell membrane and the hot ligand are diluted with Assay buffer, respectively. Then, the Assay buffer containing the diluted cell membrane is dispensed into a microplate at 50 μL/well. Then, the radioactive ligand solution is dispensed into a microplate at 50 μL/well, and the plate is sealed. Then, it is allowed to stand at 37° C. for 2 hours. During this period, 50 mmol/L Tris-HCl (pH 7.4) is dispensed into a GF/B UniFilter plate at 50 μL/well and allowed to stand at 4° C. for 1 hour or longer. After that, filtration is performed with Cell harvester (PerkinElmer). After the GF/B UniFilter plate is dried at room temperature, MicroScinti 20 is dispensed into the GF/B UniFilter plate at 50 μL/well, and the plate is sealed. The GF/B UniFilter plate is allowed to stand overnight at room temperature. The radioactivity of [^3H]-Mesulergine bound to the 5-HT2C receptor is measured using Microbeta2 (PerkinElmer) at a measurement time of 1 min/well. The non-specific binding is calculated from the radioactivity of […] in the presence of 500 μmol/L Serotonin HCl which is the unlabeled ligand, and the total binding is calculated from the radioactivity of [^3H]-Mesulergine in the absence of the compound according to the present invention (Vehicle). Finally, the Ki value is calculated from the dose-response curve.
as §5, §6

Like-named read-outs stand apart in the source and are kept apart here. A value given as a limit tells only on which side of the number the result lay.

human recombinant 5-HT2A receptor, sequence (P28223 whole entry): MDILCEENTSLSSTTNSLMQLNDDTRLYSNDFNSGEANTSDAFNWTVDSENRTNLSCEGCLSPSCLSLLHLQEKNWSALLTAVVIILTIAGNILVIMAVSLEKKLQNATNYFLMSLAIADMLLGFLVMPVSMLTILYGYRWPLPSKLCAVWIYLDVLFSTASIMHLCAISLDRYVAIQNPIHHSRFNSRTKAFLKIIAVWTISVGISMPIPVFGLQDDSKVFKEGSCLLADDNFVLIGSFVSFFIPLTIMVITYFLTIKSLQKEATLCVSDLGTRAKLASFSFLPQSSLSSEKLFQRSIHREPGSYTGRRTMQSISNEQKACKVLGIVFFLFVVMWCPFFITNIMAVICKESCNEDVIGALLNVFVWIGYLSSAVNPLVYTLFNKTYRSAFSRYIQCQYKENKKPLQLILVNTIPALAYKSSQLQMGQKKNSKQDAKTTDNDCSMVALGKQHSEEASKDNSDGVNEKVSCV
human recombinant 5-HT2C receptor, sequence (P28335 33-458): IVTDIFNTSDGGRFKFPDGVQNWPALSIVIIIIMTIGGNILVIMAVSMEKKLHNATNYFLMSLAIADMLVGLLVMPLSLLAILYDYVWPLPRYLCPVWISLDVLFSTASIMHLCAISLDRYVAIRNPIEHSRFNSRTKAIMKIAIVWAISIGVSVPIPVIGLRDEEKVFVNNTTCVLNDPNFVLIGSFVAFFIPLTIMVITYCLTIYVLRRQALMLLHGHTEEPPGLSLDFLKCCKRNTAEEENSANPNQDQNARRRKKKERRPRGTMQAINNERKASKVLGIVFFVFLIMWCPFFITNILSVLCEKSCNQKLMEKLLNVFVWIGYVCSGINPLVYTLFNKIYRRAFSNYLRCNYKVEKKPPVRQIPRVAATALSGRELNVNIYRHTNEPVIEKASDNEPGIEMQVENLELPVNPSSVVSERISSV

What is called Ki is a dissociation constant, usually derived from enzyme kinetics or from competition with a known ligand. As for `CCc1nc(CN(Cc2ccc(OCC(C)C)cc2)C2=NOC3(CCN(C)CC3)N2)co1` [Compound I-068], the Ki in assay [1] (read-out: h-5-HT2A Ki) and in assay [2] (read-out: h-5-HT2C Ki) was less than 10 nM each time.
For `CCCOc1ccc(CC2=NOC3(CCN(C)CC34CC4)N2Cc2cc(C)n(C)n2)cc1` (racemic) [Compound I-029], the Ki in assay [1] (read-out: h-5-HT2A Ki) and in assay [2] (read-out: h-5-HT2C Ki) was less than 10 nM in each case.
`CCCOc1ccc(CNC2=NOC3(CCN(C)CC34CC4)N2Cc2ccn(C)n2)cc1` (racemic) [Compound I-040]: the inhibition constant (Ki) in assay [1] (read-out: h-5-HT2A Ki) and in assay [2] (read-out: h-5-HT2C Ki) was 100 to 500 nM throughout.
Regarding `CN1CCC2(CC1)NC(N(Cc1ccc(OCC(F)(F)C(F)F)cc1)Cc1ccn(C)n1)=NO2` [Compound I-010], the Ki in assay [1] (read-out: h-5-HT2A Ki) and in assay [2] (read-out: h-5-HT2C Ki) was less than 10 nM in each case.
For the compound `Cc1nc(CN(Cc2ccc(OCC(C)(F)F)cc2)C2=NOC3(CCN(C)CC3)N2)co1` [Compound I-065], the inhibition constant Ki in assay [1] (read-out: h-5-HT2A Ki) and in assay [2] (read-out: h-5-HT2C Ki) was less than 10 nM throughout.
As for `Cc1nc(CN(Cc2ccc(Cc3ccccc3)cc2)C2=NOC3(CCN(C)CC3)N2)co1` [Compound I-119], the Ki in assay [1] (read-out: h-5-HT2A Ki) and in assay [2] (read-out: h-5-HT2C Ki) was less than 10 nM in each case.
Turning to `Cc1nc(CN(Cc2ccc(OCC3CCC3)cc2)C2=NOC3(CCN(C)CC3)N2)co1` [Compound I-083], the Ki in assay [1] (read-out: h-5-HT2A Ki) and in assay [2] (read-out: h-5-HT2C Ki) was less than 10 nM throughout.
Take `Cc1nc(CN(Cc2ccc(OCC3CC3)cc2)C2=NOC3(CCN(C)CC3)N2)co1` [Compound I-079]: the Ki in assay [1] (read-out: h-5-HT2A Ki) and in assay [2] (read-out: h-5-HT2C Ki) was less than 10 nM in each case.
In the case of `CC(C)COc1ccc(CN(Cc2ccn(C)n2)C2=NOC3(CCN(C)CC3)N2)cc1` [Compound I-009], the Ki in assay [1] (read-out: h-5-HT2A Ki) and in assay [2] (read-out: h-5-HT2C Ki) was less than 10 nM throughout.
In the case of `CCCOc1ccc(CC2=NOC3(CCN(C)CC34CC4)N2Cc2ccc(F)cn2)cc1` (centres unmarked) [Compound I-026], the inhibitory constant (Ki) in assay [1] (read-out: h-5-HT2A Ki) and in assay [2] (read-out: h-5-HT2C Ki) was less than 10 nM each time.
With `CCCCc1ccc(CN(Cc2coc(C)n2)C2=NOC3(CCN(C)CC3)N2)cc1` [Compound I-077], the Ki in assay [1] (read-out: h-5-HT2A Ki) and in assay [2] (read-out: h-5-HT2C Ki) was less than 10 nM throughout.
Consider `CC(C)COc1ccc(CN(Cc2ccc(F)cc2)C2=NC(=O)C3(CCNCC3)N2)cc1` [Compound I-022], for which the inhibition constant Ki in assay [1] (read-out: h-5-HT2A Ki) and in assay [2] (read-out: h-5-HT2C Ki) was less than 10 nM in each case.
As for `Cc1nc(CN(Cc2ccc(OCC(F)(F)C(F)(F)F)cc2)C2=NOC3(CCN(C)CC3)N2)co1` [Compound I-082], the Ki in assay [1] (read-out: h-5-HT2A Ki) and in assay [2] (read-out: h-5-HT2C Ki) was less than 10 nM each time.
`Cn1ccc(CN2C(Cc3ccc(OC4CC4)cc3)=NOC23CCNCC32CC2)n1` (racemic) [Compound I-038]: the Ki in assay [1] (read-out: h-5-HT2A Ki) was 10 to 100 nM; in assay [2] (read-out: h-5-HT2C Ki) it was less than 10 nM.
On to `CC(C)COc1ccc(CN(Cc2ccc(F)cn2)C2=NC(=O)C3(CCN(C)CC3)N2)cc1` [Compound I-030], for which the Ki is less than 10 nM in assay [1] (read-out: h-5-HT2A Ki) and 10 to 100 nM in assay [2] (read-out: h-5-HT2C Ki).
Take `CN1CCC2(CC1)NC(N(Cc1ccc(OCC(F)(F)F)c(F)c1)Cc1coc(C3CC3)n1)=NO2` [Compound I-116]: the Ki in assay [1] (read-out: h-5-HT2A Ki) and in assay [2] (read-out: h-5-HT2C Ki) was less than 10 nM each time.
For the compound `CCCc1ccc(CN(Cc2coc(C)n2)C2=NOC3(CCN(C)CC3)N2)c(F)c1` [Compound I-109], the Ki in assay [1] (read-out: h-5-HT2A Ki) and in assay [2] (read-out: h-5-HT2C Ki) was less than 10 nM throughout.
As for `Cc1nc(CN(Cc2ccc3ccccc3c2)C2=NOC3(CCN(C)CC3)N2)co1` [Compound I-097], the Ki in assay [1] (read-out: h-5-HT2A Ki) and in assay [2] (read-out: h-5-HT2C Ki) was less than 10 nM in each case.
As for `CC(C)COc1ccc(CN(Cc2ccn(C)n2)C2=NC(=O)C3(CCN(C)CC34CC4)N2)cc1` (racemic) [Compound I-043], the Ki in assay [1] (read-out: h-5-HT2A Ki) and in assay [2] (read-out: h-5-HT2C Ki) was 10 to 100 nM in each case.
Turning to `Cc1ccc(CN(Cc2ccc(OCC(C)C)cc2)C2=NOC3(CCNCC3)N2)cn1` [Compound I-078], the Ki in assay [1] (read-out: h-5-HT2A Ki) was less than 10 nM; in assay [2] (read-out: h-5-HT2C Ki) it was 100 to 500 nM.
With `Cc1nc(CN(Cc2ccc(OCC(C)C)c(F)c2)C2=NOC3(CCNCC3)N2)co1` [Compound I-130], the inhibition constant (Ki) in assay [1] (read-out: human serotonin 5-HT2A receptor binding activity Ki) was determined as 1.29 nM; in assay [2] (read-out: human serotonin 5-HT2C receptor binding activity Ki), 0.535 nM.
Consider `CC(C)COc1ccc(CN(Cc2cnn(C)n2)C2=NOC3(CCN(C)CC3)N2)c(F)c1` [Compound I-106], for which the inhibition constant Ki in assay [1] (read-out: h-5-HT2A Ki) and in assay [2] (read-out: h-5-HT2C Ki) was less than 10 nM in each case.
In the case of `Cc1ccc(CN(Cc2ccc(OCC(C)C)cc2)C2=NOC3(CCN(C)CC3)N2)nc1` [Compound I-016], the Ki in assay [1] (read-out: h-5-HT2A Ki) and in assay [2] (read-out: h-5-HT2C Ki) was less than 10 nM throughout.
Consider `CC(C)COc1ccc(CN(Cc2cnn(C)n2)C2=NOC3(CCN(C)CC3)N2)cc1` [Compound I-072], for which the Ki in assay [1] (read-out: h-5-HT2A Ki) and in assay [2] (read-out: h-5-HT2C Ki) was less than 10 nM throughout.
For `Cc1cc(CN(Cc2ccc(OCC(C)C)cc2)C2=NOC3(CCN(C)CC3)N2)no1` [Compound I-075], the results for the Ki in assay [1] (read-out: h-5-HT2A Ki) and in assay [2] (read-out: h-5-HT2C Ki) were less than 10 nM and 100 to 500 nM, respectively.
For `CCCCOc1ccc(CN(Cc2coc(C)n2)C2=NOC3(CCNCC3)N2)cc1` [Compound I-134], in that order: less than 10 nM and less than 10 nM.
For `CCCCOc1ccc(CN(Cc2cnn(C)n2)C2=NOC3(CCN(C)CC3)N2)c(F)c1` [Compound I-112], the Ki in assay [1] (read-out: h-5-HT2A Ki) and in assay [2] (read-out: h-5-HT2C Ki) was less than 10 nM in each case.
Regarding `Cc1nc(CN(Cc2ccc3ncccc3c2)C2=NOC3(CCN(C)CC3)N2)co1` [Compound I-096], the values for the Ki in assay [1] (read-out: h-5-HT2A Ki) and in assay [2] (read-out: h-5-HT2C Ki) were less than 10 nM and 10 to 100 nM, respectively.

The values are drawn from patent US20250026765A1, “SPIROHETEROCYCLE DERIVATIVE HAVING SEROTONIN RECEPTOR BINDING ACTIVITY” (Shionogi & Co., Ltd., priority 2021, published 2025).
